ChEMBL document CHEMBL1201862, “PubChem BioAssay data set” (2004)
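1) Cells in 96-well plates. 2) Compound, 48 h, 5 concentrations. 3) Linear interpolation between surrounding doses. 4) Unreached endpoint = highest concentration. Abbreviation: GI50, concentration required for 50% inhibition of growth.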 Active and inactive are the calls of the source. Rule as the data show it: active = GI50 up to about 1.1 µM and inactive = higher.

Key:
Assay in all cases: growth of human tumour cells (NCI), 48 h
OVCAR-4 = test system: OVCAR-4
MDA-N = test system: MDA-N
K562 = test system: K562
DU-145 = test system: DU-145
NCI-H23 = test system: NCI-H23
OVCAR-8 = test system: OVCAR-8
Hs-578T = test system: Hs-578T
U-251 = test system: U-251
MCF7 = test system: MCF7
SK-MEL-2 = test system: SK-MEL-2
OVCAR-3 = test system: OVCAR-3
LOX IMVI = test system: LOX IMVI
SK-MEL-5 = test system: SK-MEL-5
RPMI-8226 = test system: RPMI-8226
SNB-75 = test system: SNB-75
SW-620 = test system: SW-620
T47D = test system: T47D
EKVX = test system: EKVX
TK-10 = test system: TK-10

Row | SMILES | GI50 (OVCAR-4) | GI50 (MDA-N) | GI50 (K562) | GI50 (DU-145) | GI50 (NCI-H23) | GI50 (OVCAR-8) | GI50 (Hs-578T) | GI50 (U-251) | GI50 (MCF7) | GI50 (SK-MEL-2) | GI50 (OVCAR-3) | GI50 (LOX IMVI) | GI50 (SK-MEL-5) | GI50 (RPMI-8226) | GI50 (SNB-75) | GI50 (SW-620) | GI50 (T47D) | GI50 (EKVX) | GI50 (TK-10)
1 | CC(=O)c1sc2[n+](c1C)C(=O)/C(=C\c1ccccc1Cl)S2 | 29.2 µM (inactive) | 19.4 µM (inactive) | 25.5 µM (inactive) | 18.7 µM (inactive) | 19.3 µM (inactive) | 24.3 µM (inactive) | 47.8 µM (inactive) | 16.6 µM (inactive) | 16.1 µM (inactive) | 24 µM (inactive) | 18 µM (inactive) | 18 µM (inactive) | 11.3 µM (inactive) | 17.5 µM (inactive) | 26.8 µM (inactive) | 17.3 µM (inactive) | 15.7 µM (inactive) | 26.8 µM (inactive) | 26.9 µM (inactive)
2 | CCOC(=O)NC | > 100 µM (inactive) | > 100 µM (inactive) | > 100 µM (inactive) | > 100 µM (inactive) | > 100 µM (inactive) |  | > 100 µM (inactive) | > 100 µM (inactive) | > 100 µM (inactive) | > 100 µM (inactive) | > 100 µM (inactive) | > 100 µM (inactive) | > 100 µM (inactive) | > 100 µM (inactive) | > 100 µM (inactive) | > 100 µM (inactive) | > 100 µM (inactive) | > 100 µM (inactive) | > 100 µM (inactive)
3 | CC1=CC(=O)c2c(O)cccc2C1=O [PLUMBAGIN] | 1.76 µM (inactive) | 1.72 µM (inactive) | 0.391 µM (active) | 1.65 µM (inactive) | 1.81 µM (inactive) | 1.69 µM (inactive) | 2.91 µM (inactive) | 6.17 µM (inactive) | 1.79 µM (inactive) | 1.85 µM (inactive) | 1.03 µM (active) | 1.81 µM (inactive) | 1.62 µM (inactive) | 0.891 µM (active) | 5.51 µM (inactive) | 1.91 µM (inactive) | 0.434 µM (active) | 1.6 µM (inactive) | 1.71 µM (inactive)
4 | CC(C)C[C@H](NC(=O)[C@H](Cc1ccccc1)NC(=O)CCc1ccccc1)B(O)O | < 0.01 µM (active) | < 0.01 µM (active) | < 0.01 µM (active) | < 0.01 µM (active) | < 0.01 µM (active) | < 0.01 µM (active) | < 0.01 µM (active) | < 0.01 µM (active) | < 0.01 µM (active) | < 0.01 µM (active) | < 0.01 µM (active) | < 0.01 µM (active) | < 0.01 µM (active) | < 0.01 µM (active) | < 0.01 µM (active) | < 0.01 µM (active) | < 0.01 µM (active) | < 0.01 µM (active) | < 0.01 µM (active)
5 | CCN(CC)CCC(=O)Nc1ccc2sc3ccccc3c(=O)c2n1 | 22.9 µM (inactive) | 14.1 µM (inactive) | 11 µM (inactive) | 23.4 µM (inactive) | 17.8 µM (inactive) | 17.5 µM (inactive) | 20.7 µM (inactive) | 14.9 µM (inactive) | 13.3 µM (inactive) | 19.8 µM (inactive) | 19.2 µM (inactive) | 14 µM (inactive) | 17.9 µM (inactive) | 12.1 µM (inactive) | 8.55 µM (inactive) | 12 µM (inactive) | 16.1 µM (inactive) | 25.9 µM (inactive) | 18 µM (inactive)
6 | NNC(=O)CSc1nc2ccc(I)cc2c(=O)n1Cc1ccccc1 | 19.5 µM (inactive) | 31.8 µM (inactive) | 26.1 µM (inactive) | 31.2 µM (inactive) | 31.5 µM (inactive) | 48.4 µM (inactive) | 20.9 µM (inactive) | 20.3 µM (inactive) | 22.2 µM (inactive) | 20.4 µM (inactive) | 18.4 µM (inactive) | 15.6 µM (inactive) | 17.2 µM (inactive) | 21.6 µM (inactive) | 22.9 µM (inactive) | 33 µM (inactive) | 22.5 µM (inactive) | 13.1 µM (inactive) | 16.9 µM (inactive)
7 | C=C1C(=O)OC2/C=C(\C)C(O)CC(O)C(C)(O)CC(OC(=O)/C(C)=C/C)C12 (configuration not stated) | 45.2 µM (inactive) | 37.3 µM (inactive) | 32.6 µM (inactive) | 34.3 µM (inactive) | 46.9 µM (inactive) | 32.5 µM (inactive) | 44.2 µM (inactive) | 38.1 µM (inactive) | 56.8 µM (inactive) | 43.1 µM (inactive) | 44.2 µM (inactive) | 32.3 µM (inactive) | 36.7 µM (inactive) | 23 µM (inactive) | 38.2 µM (inactive) | 35.6 µM (inactive) | 65.5 µM (inactive) | 43.1 µM (inactive) | > 67.5 µM (inactive)
8 | COc1cc([C@@H]2c3cc4c(cc3[C@@H](c3c(O)cc(O)c5c3O[C@H](c3ccc(O)c(O)c3)[C@H](OC(=O)c3cc(O)c(O)c(O)c3)C5)[C@H]3COC(=O)[C@H]23)OCO4)cc(OC)c1OC | 16.6 µM (inactive) | 3.07 µM (inactive) | 4.78 µM (inactive) | 22.7 µM (inactive) | 38.5 µM (inactive) | 7.1 µM (inactive) | 4.07 µM (inactive) | 6.12 µM (inactive) | 3.75 µM (inactive) | 11.7 µM (inactive) | 4.01 µM (inactive) | 5.77 µM (inactive) | 7.38 µM (inactive) | 5 µM (inactive) | 3.47 µM (inactive) | 5.87 µM (inactive) | > 100 µM (inactive) | 45.5 µM (inactive) | > 100 µM (inactive)
9 | Cc1[nH]c2ccccc2c1-c1cc(-c2cc(-c3c(C)[nH]c4ccccc34)on2)no1 | > 100 µM (inactive) | 21 µM (inactive) | 56.6 µM (inactive) | > 100 µM (inactive) | > 100 µM (inactive) | > 100 µM (inactive) | 37.2 µM (inactive) | 77.8 µM (inactive) | 55 µM (inactive) | > 100 µM (inactive) | 40.6 µM (inactive) | 55 µM (inactive) | 38.5 µM (inactive) | 85.1 µM (inactive) | 18.2 µM (inactive) | 53.2 µM (inactive) | 85.5 µM (inactive) | 54.7 µM (inactive) | > 100 µM (inactive)
10 | Cc1ccc(Nc2n[nH]c(=S)s2)cc1C | 89.9 µM (inactive) | 40.6 µM (inactive) | 64.1 µM (inactive) | > 100 µM (inactive) | > 100 µM (inactive) | > 100 µM (inactive) | > 100 µM (inactive) | 92.7 µM (inactive) | 90.4 µM (inactive) | > 100 µM (inactive) | > 100 µM (inactive) | > 100 µM (inactive) | 68.2 µM (inactive) | 81.5 µM (inactive) | > 100 µM (inactive) | > 100 µM (inactive) | 27.4 µM (inactive) | > 100 µM (inactive) | > 100 µM (inactive)
11 | COC1C(OC(=O)c2ccc(C)[nH]2)C(O)C(Oc2ccc3c(O)c(NC(=O)c4ccc(O)c(CC=C(C)C)c4)c(=O)oc3c2Cl)OC1(C)C (configuration not stated) | 26.6 µM (inactive) | 23 µM (inactive) | 29.6 µM (inactive) | 31 µM (inactive) | 20.1 µM (inactive) | 17.9 µM (inactive) | 16.1 µM (inactive) | 12.8 µM (inactive) | 18.4 µM (inactive) | 13.2 µM (inactive) | 18.7 µM (inactive) | 18.1 µM (inactive) | 19.7 µM (inactive) | 8.22 µM (inactive) | 19.1 µM (inactive) | 18.5 µM (inactive) | 15.9 µM (inactive) | 18.7 µM (inactive) | 55.3 µM (inactive)
12 | N#Cc1c(Nc2ccccc2)[n+]([O-])c2ccc(Cl)cc2[n+]1[O-] | 1.56 µM (inactive) | 11 µM (inactive) | 3.03 µM (inactive) | 16.1 µM (inactive) | 5.08 µM (inactive) | 2.77 µM (inactive) | 16.6 µM (inactive) | 3.15 µM (inactive) | 3.64 µM (inactive) | 18 µM (inactive) | 2.99 µM (inactive) | 3.1 µM (inactive) | 2.09 µM (inactive) | 3.28 µM (inactive) | 25.9 µM (inactive) | 4.63 µM (inactive) | 6.65 µM (inactive) | 4.3 µM (inactive) | 4.06 µM (inactive)
13 | COc1ccc(-c2cc3c(nn2)-c2ccccc2C3=O)cc1 | > 10 µM (inactive) | > 10 µM (inactive) | > 10 µM (inactive) | > 10 µM (inactive) | > 10 µM (inactive) | > 10 µM (inactive) | > 10 µM (inactive) | > 10 µM (inactive) | 8.93 µM (inactive) | > 10 µM (inactive) | > 10 µM (inactive) | > 10 µM (inactive) | > 10 µM (inactive) | > 10 µM (inactive) | 0.845 µM (active) | > 10 µM (inactive) | > 10 µM (inactive) | > 10 µM (inactive) | > 10 µM (inactive)
14 | CN(C)/C=N\c1cccc2cnccc12 | > 100 µM (inactive) | > 100 µM (inactive) | > 100 µM (inactive) | > 100 µM (inactive) | > 100 µM (inactive) | > 100 µM (inactive) | > 100 µM (inactive) | > 100 µM (inactive) | > 100 µM (inactive) | > 100 µM (inactive) | 43.2 µM (inactive) | > 100 µM (inactive) | > 100 µM (inactive) | > 100 µM (inactive) | 44.8 µM (inactive) |  | > 100 µM (inactive) | > 100 µM (inactive) | > 100 µM (inactive)
15 | Cc1cn(CCCCCCOC(=O)NC(CCCNC(=N)N)C(=O)O)c(=O)[nH]c1=O (configuration not stated) | > 100 µM (inactive) | > 100 µM (inactive) | > 100 µM (inactive) | > 100 µM (inactive) | > 100 µM (inactive) | > 100 µM (inactive) | > 100 µM (inactive) | > 100 µM (inactive) | > 100 µM (inactive) | > 100 µM (inactive) | > 100 µM (inactive) | > 100 µM (inactive) |  | > 100 µM (inactive) | > 100 µM (inactive) | > 100 µM (inactive) | > 100 µM (inactive) | > 100 µM (inactive) | > 100 µM (inactive)
